# Laboratory results as given in patent publication US20110002953A1, “USE OF IMMIDAZOQUINOLINAMINES AS ADJUVANTS IN DNA VACCINATION” (priority 2000, published 2011).
# Key:
# [1] = test system: IFN-γ-producing (Th1) cells; assay: IFN-γ ELISPOT on lymph node cells after pVAC1.OVA vaccination, adoptive transfer model; type: in vivo, Balb/c mice; details: for IFN-γ producing cells, in words: pVAC1.OVA + adjuvant versus plasmid without adjuvant
# Experimental: (§1) Splenocytes were prepared as in example 1 above.
# (§2) Th CD4+ subsets were assessed using the adoptive transfer model (example 2, above). IFN-γ-producing (Th1) and IL-4-producing (Th2) cells were assayed by ELISPOT (example 1, above). […] No cytokine producing cells were detected in empty vector immunised controls.
# (§3) Cartridges were prepared using the pVAC1.OVA plasmid, immunisations and T cell responses were as described in example 2.
# [2] = test system: IL-4-producing (Th2) cells; assay: IL-4 ELISPOT on lymph node cells after pVAC1.OVA vaccination, adoptive transfer model; type: in vivo, Balb/c mice; details: for IL-4 producing cells, in words: pVAC1.OVA + adjuvant versus plasmid without adjuvant
# Experimental: as §1, §2, §3
# [3] = test system: cytotoxic T cell response; assay: CD8+ T cell-restricted IFN-γ ELISPOT of splenocytes after particle mediated vaccination with pVAC1.PR (influenza nucleoprotein plasmid); type: in vivo, C57B1/6 mice
# Experimental: The cytotoxic T cell response was assessed by CD8+ T cell-restricted IFN-γ ELISPOT assay of splenocytes collected one week later. Mice were killed by cervical dislocation and spleens were collected into ice-cold PBS. Splenocytes were teased out into phosphate buffered saline (PBS) followed by lysis of red blood cells (1 minute in buffer consisting of 155 mM NH4Cl, 10 mM KHCO3, 0.1 mM EDTA). After two washes in PBS to remove particulate matter the single cell suspension was aliquoted into ELISPOT plates previously coated with capture IFN-γ antibody and stimulated with CD8-restricted cognate peptide. After overnight culture, IFN-γ producing cells were visualised by application of anti-murine IFN-γ-biotin labelled antibody (Pharmingen) followed by streptavidin—conjugated alkaline phosphatase and quantitated using image analysis.
# [4] = test system: cytotoxic T cells (HIV antigens Gag and Nef); assay: IFN-γ ELISPOT of splenocytes with CD8-restricted Gag and Nef peptides after prime/boost vaccination with WRG7077.Gag/Nef; type: in vivo, Balb/c mice
# Experimental: Here mice received a primary immunisation followed by a boost immunisation 42 days later.
# IFN-γ ELISPOT assays were performed as described (example 1), using CD8-restricted cognate peptides for the Gag and Nef antigens to stimulate splenocytes collected 5 days after the boost immunisation.
# Cartridges were prepared using the WRG7077Gag/Nef plasmid, PMID immunisations and T cell responses were as described in example 5. […] Spleens were collected for analysis 6 and 11 days after the boost immunisation.
# EG7-OVA cells = assay: Tumour challenge with EG7-OVA cells after immunisation with pVAC1.OVA; type: in vivo, mice
# [5] = imiquimod 100 mg/kg s.c. at boost only, splenocytes 5 days after boost, versus plasmid with vehicle
compound,measurement,setting,value
"CC(C)(O)Cn1cnc2c(N)nc3ccccc3c21 [1-(2-hydroxy-2-methylpropyl)-1H-imidazo[4,5-c]quinolin-4-amine]","IFN-γ producing cells, in words",[1],increased
same,"IL-4 producing cells, in words",[2],increased
"Cc1nc2c(N)nc3ccccc3c2n1CC(C)(C)O [1-(2-hydroxy-2-methylpropyl)-2-methyl-1H-imidazo[4,5-c]quinolin-4-amine]","IFN-γ producing cells, in words",[1],increased
same,"IL-4 producing cells, in words",[2],increased
same,increase in IL-4 producing CD4 T cells,"[2]; single dose 30 mg/kg, 5 days after immunisation",Two
"CCOCc1nc2c(N)nc3ccccc3c2n1CC(C)(C)O [Resiquimod, 1-(2-hydroxy-2-methylpropyl)-2-ethoxymethyl-1-H-imidazo[4,5-c]quinolin-4-amine]",increase of IFN-γ producing CD4 T cells,"[1]; 1 mg/kg (apparently optimal dose), lymph node cells 5 days after immunisation",six
same,"IFN-γ producing cells, in words",[1],increased
same,effect on IL-4 producing CD4 T cells,"[2]; 1 mg/kg, lymph node cells 5 days after immunisation",only a modest effect
same,"IL-4 producing cells, in words",[2],increased
"CC(C)Cn1cnc2c(N)nc3ccccc3c21 [imiquimod, 1-(2-methylpropyl)-1H-imidazo[4,5-c]quinolin-4-amine]","cytotoxic T cells, control plasmid (pVAC1) + imiquimod versus vehicle","[3]; empty vector pVAC1, imiquimod 30 mg/kg s.c.",No difference
same,"number of cytotoxic T cells in the spleens, pVAC1.PR + imiquimod versus pVAC1.PR + vehicle","[3]; imiquimod 30 mg/kg single s.c. injection at immunisation site, splenocytes one week later",3 times
same,cytotoxic T-cell response following vaccination with pVAC1.PR (FIG. 1),[3]; in words,increases
same,"IFN-γ producing cells, in words",[1],increased
same,Th1/Th2 bias: increase of IFN-γ versus IL-4 producing cells,"[1]; pVAC1.OVA + imiquimod, ELISPOT",more substantial for IFN-γ compared with IL-4
same,"IL-4 producing cells, in words",[2],increased
same,"increase in cytotoxic T cells, imiquimod s.c. injection","[4]; 30 mg/kg s.c., 11 days after boost, versus plasmid with s.c. vehicle",approximately 2 fold
same,"increase in cytotoxic T cells, imiquimod topically","[4]; 20 μl of 5% (w/v) cream (Aldara) at PMID site, 11 days after boost, versus plasmid with s.c. vehicle",approximately 2 fold
same,"increase in cytotoxic T cells, Gag",[4]; [5],10 fold
same,"increase in cytotoxic T cells, Nef",[4]; [5],100 fold
same,cytotoxic T-cell response following vaccination with WRG7077.Gag/Nef (FIG. 5),[4]; in words,increases
same,"cytotoxic T-cell response, topical application (FIG. 8)",[4]; in words,increases
same,growth of tumours (FIG. 9),EG7-OVA cells; in words,delays
same,tumourigenicity of EG7.OVA tumour cells (FIG. 10),EG7-OVA cells; in words,reduces
same,tumourigenicity,"EG7-OVA cells; mice immunised with pVAC1.OVA + imiquimod 30 mg/kg s.c., 100,000 cells/mouse two weeks after boost",25%
same,appearance of palpable tumours,EG7-OVA cells; pVAC1.OVA + imiquimod 30 mg/kg s.c. compared with pVAC1.OVA alone,most delayed
